In patent US11981658B2, “Substituted aminopyridine compounds as EGFR inhibitors” (YUHAN CORPORATION, priority 2021, dated 2024):
Read-outs that look alike come from different tables or passages of the source.

Experiments:
EGFR wildtype (WT) = EGFR wildtype (WT) (Homo sapiens, UniProt P00533); test: Biochemical EGFR kinase inhibition assay (Lance Ultra TR-FRET), wildtype
In short: (§1)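 Enzyme reactions lasted 1 hour at room temperature with test compounds between 0.003 and 10 μM, followed by 10 mM EDTA quench.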

EGFR L858R/T790M/C797S = EGFR L858R/T790M/C797S (Homo sapiens, UniProt P00533, C797S/L858R/T790M); test: Biochemical EGFR kinase inhibition assay (Lance Ultra TR-FRET), triple mutant L858R/T790M/C797S
Chain of EGFR L858R/T790M/C797S (P00533 25-1210 T790M/C797S/L858R): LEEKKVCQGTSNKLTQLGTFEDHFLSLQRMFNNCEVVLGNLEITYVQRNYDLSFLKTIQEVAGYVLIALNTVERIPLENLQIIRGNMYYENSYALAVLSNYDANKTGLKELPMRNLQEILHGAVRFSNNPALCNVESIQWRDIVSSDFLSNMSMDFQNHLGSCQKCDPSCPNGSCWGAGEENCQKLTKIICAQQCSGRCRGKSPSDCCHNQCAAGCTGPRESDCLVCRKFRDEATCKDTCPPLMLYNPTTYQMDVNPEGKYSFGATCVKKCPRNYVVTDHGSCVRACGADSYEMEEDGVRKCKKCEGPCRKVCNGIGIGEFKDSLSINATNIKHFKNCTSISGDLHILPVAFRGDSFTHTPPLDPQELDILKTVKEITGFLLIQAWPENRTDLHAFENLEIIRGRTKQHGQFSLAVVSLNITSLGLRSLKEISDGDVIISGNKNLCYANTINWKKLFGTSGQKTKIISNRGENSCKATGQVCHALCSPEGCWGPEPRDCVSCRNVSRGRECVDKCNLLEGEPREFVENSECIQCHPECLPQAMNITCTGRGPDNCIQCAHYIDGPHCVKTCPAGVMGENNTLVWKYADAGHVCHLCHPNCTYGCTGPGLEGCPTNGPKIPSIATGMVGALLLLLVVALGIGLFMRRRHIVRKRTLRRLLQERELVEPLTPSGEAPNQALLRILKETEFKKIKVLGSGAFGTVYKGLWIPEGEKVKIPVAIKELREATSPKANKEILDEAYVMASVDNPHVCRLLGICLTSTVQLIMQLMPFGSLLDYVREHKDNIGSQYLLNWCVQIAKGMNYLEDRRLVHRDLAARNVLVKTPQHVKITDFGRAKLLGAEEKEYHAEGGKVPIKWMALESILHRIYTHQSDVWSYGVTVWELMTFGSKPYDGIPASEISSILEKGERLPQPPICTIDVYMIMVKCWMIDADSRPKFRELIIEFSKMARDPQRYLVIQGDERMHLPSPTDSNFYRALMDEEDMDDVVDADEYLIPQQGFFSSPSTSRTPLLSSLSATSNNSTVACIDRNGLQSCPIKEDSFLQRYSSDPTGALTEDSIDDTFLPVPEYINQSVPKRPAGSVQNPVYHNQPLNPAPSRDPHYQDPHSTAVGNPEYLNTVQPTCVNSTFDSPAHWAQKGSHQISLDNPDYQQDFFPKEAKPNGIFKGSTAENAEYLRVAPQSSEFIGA
In short: as §1

EGFR L858R/C797S = EGFR L858R/C797S (Homo sapiens, UniProt P00533, C797S/L858R); test: Biochemical EGFR kinase inhibition assay (Lance Ultra TR-FRET), double mutant L858R/C797S
Chain of EGFR L858R/C797S (P00533 25-1210 C797S/L858R): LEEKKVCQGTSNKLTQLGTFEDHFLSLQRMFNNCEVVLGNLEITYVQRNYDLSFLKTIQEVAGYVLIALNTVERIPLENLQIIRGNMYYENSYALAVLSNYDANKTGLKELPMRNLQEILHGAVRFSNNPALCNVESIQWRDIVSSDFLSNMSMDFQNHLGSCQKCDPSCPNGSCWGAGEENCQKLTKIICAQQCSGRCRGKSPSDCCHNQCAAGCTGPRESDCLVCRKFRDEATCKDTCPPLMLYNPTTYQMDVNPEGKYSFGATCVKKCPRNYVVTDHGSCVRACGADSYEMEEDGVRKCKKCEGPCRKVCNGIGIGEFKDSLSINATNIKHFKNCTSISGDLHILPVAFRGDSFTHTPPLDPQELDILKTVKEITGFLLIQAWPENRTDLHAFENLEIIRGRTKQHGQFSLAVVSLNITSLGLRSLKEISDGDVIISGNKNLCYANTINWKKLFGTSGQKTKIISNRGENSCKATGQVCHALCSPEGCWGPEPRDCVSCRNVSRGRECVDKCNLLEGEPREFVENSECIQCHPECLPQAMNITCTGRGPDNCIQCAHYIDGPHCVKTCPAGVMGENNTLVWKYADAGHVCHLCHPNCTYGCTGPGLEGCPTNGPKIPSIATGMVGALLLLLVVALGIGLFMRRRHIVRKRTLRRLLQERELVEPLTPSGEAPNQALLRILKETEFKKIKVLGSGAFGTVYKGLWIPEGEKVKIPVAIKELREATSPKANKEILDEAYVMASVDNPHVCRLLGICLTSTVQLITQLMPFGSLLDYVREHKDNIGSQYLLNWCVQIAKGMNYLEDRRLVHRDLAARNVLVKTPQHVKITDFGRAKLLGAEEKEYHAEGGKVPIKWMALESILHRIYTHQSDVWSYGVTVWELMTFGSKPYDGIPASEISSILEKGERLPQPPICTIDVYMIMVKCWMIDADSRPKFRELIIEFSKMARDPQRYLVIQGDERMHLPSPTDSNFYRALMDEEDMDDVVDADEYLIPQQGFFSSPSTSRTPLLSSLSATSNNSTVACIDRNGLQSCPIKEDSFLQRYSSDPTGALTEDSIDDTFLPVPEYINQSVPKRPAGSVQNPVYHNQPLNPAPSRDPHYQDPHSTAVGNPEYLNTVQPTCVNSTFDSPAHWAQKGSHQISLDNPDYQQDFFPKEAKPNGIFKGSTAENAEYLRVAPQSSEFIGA
In short: as §1

EGFR Del19/C797S = EGFR Del19/C797S (Homo sapiens, UniProt P00533, C797S/DEL746-750); test: Biochemical EGFR kinase inhibition assay (Lance Ultra TR-FRET), double mutant del19/C797S
Chain of EGFR Del19/C797S (P00533 with tags, fused parts or gaps DEL746-750/C797S): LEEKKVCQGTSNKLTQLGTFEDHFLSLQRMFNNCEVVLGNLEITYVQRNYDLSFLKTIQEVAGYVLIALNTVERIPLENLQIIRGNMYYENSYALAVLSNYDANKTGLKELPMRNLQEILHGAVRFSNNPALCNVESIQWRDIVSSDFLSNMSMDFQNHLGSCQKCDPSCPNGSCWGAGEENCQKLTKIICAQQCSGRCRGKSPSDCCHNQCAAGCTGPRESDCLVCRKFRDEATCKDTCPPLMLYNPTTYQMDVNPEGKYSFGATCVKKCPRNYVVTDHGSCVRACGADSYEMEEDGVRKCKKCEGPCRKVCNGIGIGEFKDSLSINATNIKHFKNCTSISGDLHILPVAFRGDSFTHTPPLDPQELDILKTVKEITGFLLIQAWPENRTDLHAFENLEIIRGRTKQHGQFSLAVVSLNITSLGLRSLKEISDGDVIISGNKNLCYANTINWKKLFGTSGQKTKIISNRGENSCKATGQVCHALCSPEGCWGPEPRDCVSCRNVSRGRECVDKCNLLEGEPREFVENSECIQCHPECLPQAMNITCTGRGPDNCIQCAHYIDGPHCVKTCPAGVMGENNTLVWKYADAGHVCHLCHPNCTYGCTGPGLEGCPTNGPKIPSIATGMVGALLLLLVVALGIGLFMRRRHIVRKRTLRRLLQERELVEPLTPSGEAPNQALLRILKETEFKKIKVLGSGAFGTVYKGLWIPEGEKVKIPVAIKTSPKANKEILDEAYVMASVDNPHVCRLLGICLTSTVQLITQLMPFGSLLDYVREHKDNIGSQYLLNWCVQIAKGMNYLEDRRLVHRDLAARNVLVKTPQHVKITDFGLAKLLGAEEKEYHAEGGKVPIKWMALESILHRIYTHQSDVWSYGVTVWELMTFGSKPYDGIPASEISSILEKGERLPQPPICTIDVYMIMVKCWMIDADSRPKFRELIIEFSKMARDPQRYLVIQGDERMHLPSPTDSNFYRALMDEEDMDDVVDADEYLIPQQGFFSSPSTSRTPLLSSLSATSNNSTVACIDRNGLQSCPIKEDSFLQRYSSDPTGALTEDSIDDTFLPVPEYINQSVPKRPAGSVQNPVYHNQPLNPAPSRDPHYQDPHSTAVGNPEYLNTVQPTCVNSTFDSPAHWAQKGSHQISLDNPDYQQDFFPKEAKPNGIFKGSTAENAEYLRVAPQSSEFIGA
In short: as §1

EGFR Del19/T790M/C797S = EGFR Del19/T790M/C797S (Homo sapiens, UniProt P00533, C797S/DEL746-750/T790M); test: Biochemical EGFR kinase inhibition assay (Lance Ultra TR-FRET), triple mutant del19/T790M/C797S
In short: as §1

[1] = Km ATP, read-out: IC50 WT (nM) Km ATP
[2] = IC50 L858R/T790M/C797S (nM), 100 μM ATP
[3] = Km ATP, read-out: IC50 L858R/T790M/C797S (nM) Km ATP
[4] = IC50 L858R/C797S (nM), 100 μM ATP
[5] = Km ATP, read-out: IC50 L858R/C797S (nM) Km ATP
[6] = IC50 Del19/C797S (nM), 100 μM ATP
[7] = Km ATP, read-out: IC50 Del19/C797S (nM) Km ATP
[8] = IC50 Del19/T790M/C797S (nM), 100 μM ATP
[9] = Km ATP, read-out: IC50 Del19/T790M/C797S (nM) Km ATP

Chain of EGFR wildtype (WT) (P00533 25-1210): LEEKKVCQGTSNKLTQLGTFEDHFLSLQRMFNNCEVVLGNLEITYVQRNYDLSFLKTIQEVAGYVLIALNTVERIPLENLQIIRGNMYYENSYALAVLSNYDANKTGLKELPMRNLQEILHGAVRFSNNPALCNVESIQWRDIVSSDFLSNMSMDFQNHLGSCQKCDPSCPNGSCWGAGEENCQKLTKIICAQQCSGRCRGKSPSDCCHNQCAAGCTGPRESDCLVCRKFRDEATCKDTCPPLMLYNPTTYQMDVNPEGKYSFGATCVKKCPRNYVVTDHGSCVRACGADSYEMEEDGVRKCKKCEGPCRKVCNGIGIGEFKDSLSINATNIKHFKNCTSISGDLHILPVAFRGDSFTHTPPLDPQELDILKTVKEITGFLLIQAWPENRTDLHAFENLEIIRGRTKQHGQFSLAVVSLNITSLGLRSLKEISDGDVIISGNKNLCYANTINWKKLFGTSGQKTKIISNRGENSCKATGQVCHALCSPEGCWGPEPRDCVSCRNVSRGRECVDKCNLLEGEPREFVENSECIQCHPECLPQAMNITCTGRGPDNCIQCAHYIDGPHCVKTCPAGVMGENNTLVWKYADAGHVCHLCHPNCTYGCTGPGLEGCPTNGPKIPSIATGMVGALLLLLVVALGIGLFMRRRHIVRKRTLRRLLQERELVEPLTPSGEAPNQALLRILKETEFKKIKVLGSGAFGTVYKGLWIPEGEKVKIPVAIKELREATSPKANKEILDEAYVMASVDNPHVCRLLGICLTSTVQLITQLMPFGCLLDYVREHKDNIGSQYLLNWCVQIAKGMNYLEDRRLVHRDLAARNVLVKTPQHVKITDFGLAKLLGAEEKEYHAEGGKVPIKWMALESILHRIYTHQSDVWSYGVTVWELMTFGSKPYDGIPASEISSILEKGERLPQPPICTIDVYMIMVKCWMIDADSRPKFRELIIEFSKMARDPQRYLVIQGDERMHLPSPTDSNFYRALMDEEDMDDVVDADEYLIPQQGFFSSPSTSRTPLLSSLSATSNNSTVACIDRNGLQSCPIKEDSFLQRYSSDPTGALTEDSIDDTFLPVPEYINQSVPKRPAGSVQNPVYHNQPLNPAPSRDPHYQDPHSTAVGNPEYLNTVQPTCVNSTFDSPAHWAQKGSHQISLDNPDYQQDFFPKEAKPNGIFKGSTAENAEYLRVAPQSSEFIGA

| SMILES | IC50 (EGFR wildtype (WT); IC50 WT (nM), 100 μM ATP) [nM] | IC50 (EGFR wildtype (WT); [1]) [nM] | IC50 (EGFR L858R/T790M/C797S; [2]) [nM] | IC50 (EGFR L858R/T790M/C797S; [3]) [nM] | IC50 (EGFR L858R/C797S; [4]) [nM] | IC50 (EGFR L858R/C797S; [5]) [nM] | IC50 (EGFR Del19/C797S; [6]) [nM] | IC50 (EGFR Del19/C797S; [7]) [nM] | IC50 (EGFR Del19/T790M/C797S; [8]) [nM] | IC50 (EGFR Del19/T790M/C797S; [9]) [nM] |
| --- | --- | --- | --- | --- | --- | --- | --- | --- | --- | --- |
| O=S(=O)(C1CC1)n1cc(-c2nccc(Nc3cc(N[C@H]4CCC[C@H](O)C4)c(C#Cc4cnn(C(F)(F)F)c4)cn3)n2)cn1 [Example 103, (1 S,3S)-3-((2-((2-(1-(Cyclopropylsulfonyl)-1H-pyrazol-4-yl)pyrimidin-4-yl)amino)-5-((1-(trifluoromethyl)-1H-pyrazol-4-yl)ethynyl)pyridin-4-yl)amino)cyclohexan-1-ol] | > 10000 | 1070 | 8.5 | 2.8 | 1230 | 104 | 87.3 | 66.8 | 3.5 | 2.7 |
| C[C@]1(O)CC[C@@H](Nc2cc(Nc3ccnc(-c4cnn(S(=O)(=O)C5CC5)c4)n3)ncc2C#Cc2cnn(C(F)(F)F)c2)CC1 [Example 105, (1s,4s)-4-((2-((2-(1-(Cyclopropylsulfonyl)-1H-pyrazol-4-yl)pyrimidin-4-yl)amino)-5-((1-(trifluoromethyl)-1H-pyrazol-4-yl)ethynyl)pyridin-4-yl)amino)-1-methylcyclohexan-1-ol] | > 10000 | 2520 | 6.5 | 1.5 | 2200 | 100 | 64.2 | 48.7 | 3.2 | 2.3 |
| CC(=O)N1CCC(n2cc(C#Cc3cnc(Nc4ccnc(-c5cnn(S(=O)(=O)C6CC6)c5)n4)cc3N3CCC(=O)CC3)cn2)CC1 [Example 108, 1-(5-((1-(1-Acetylpiperidin-4-yl)-1H-pyrazol-4-yl)ethynyl)-2-((2-(1-(cyclopropylsulfonyl)-1H-pyrazol-4-yl)pyrimidin-4-yl)amino)pyridin-4-yl)piperidin-4-one] | > 10000 | 126 | 7.8 | 1.6 | 154 | 8.4 | 29.8 | 25.5 | 1.2 | 1.1 |
| CC(=O)N1CCC(n2cc(C#Cc3cnc(Nc4ccnc(-c5cnn(S(=O)(=O)C6CC6)c5)n4)cc3N[C@H]3CC[C@@H](O)CC3)cn2)CC1 [Example 109, 1-(4-(4-((6-((2-(1-(Cyclopropylsulfonyl)-1H-pyrazol-4-yl)pyrimidin-4-yl)amino)-4-(((1 s, 4s)-4-hydroxycyclohexyl)amino)pyridin-3-yl)ethynyl)-1H-pyrazol-1-yl)piperidin-1-yl)ethan-1-one] | > 10000 | 10.4 | 1.4 | 0.7 | 9.1 | 1.6 | 3 | 2.3 | 1 | 0.9 |
| CC(=O)N1CCC(n2cc(C#Cc3cnc(Nc4ccnc(-c5cnn(S(=O)(=O)C6CC6)c5)n4)cc3N3CCC(F)(CO)CC3)cn2)CC1 [Example 111, 1-(4-(4-((6-((2-(1-(Cyclopropylsulfonyl)-1H-pyrazol-4-yl)pyrimidin-4-yl)amino)-4-(4-fluoro-4-(hydroxymethyl)piperidin-1-yl)pyridin-3-yl)ethynyl)-1H-pyrazol-1-yl)piperidin-1-yl)ethan-1-one] | 4380 | 6 | 1.3 | 0.5 | 4.7 | 1.2 | 2 | 2 | 0.9 | 0.8 |
| CC(=O)N1CCC(n2cc(C#Cc3cnc(Nc4ccnc(-c5cnn(S(=O)(=O)C6CC6)c5)n4)cc3N3CCC(F)CC3)cn2)CC1 [Example 112, 1-(4-(4-((6-((2-(1-(Cyclopropylsulfonyl)-1H-pyrazol-4-yl)pyrimidin-4-yl)amino)-4-(4-fluoropiperidin-1-yl)pyridin-3-yl)ethynyl)-1H-pyrazol-1-yl)piperidin-1-yl)ethan-1-one] | > 10000 | 21.3 | 2.8 | 1.1 | 17.1 | 2.8 | 5.2 | 4.6 | 1.5 | 1.5 |
| COC1CCN(c2cc(Nc3ccnc(-c4cnn(S(=O)(=O)C5CC5)c4)n3)ncc2C#Cc2cnn(C3CCN(C(C)=O)CC3)c2)CC1 [Example 113, 1-(4-(4-((6-((2-(1-(Cyclopropylsulfonyl)-1H-pyrazol-4-yl)pyrimidin-4-yl)amino)-4-(4-methoxypiperidin-1-yl)pyridin-3-yl)ethynyl)-1H-pyrazol-1-yl)piperidin-1-yl)ethan-1-one] | 7550 | 12 | 2.9 | 0.8 | 11.3 | 2.6 | 4 | 3.2 | 1.3 | 1.3 |

More lines, now with the values ahead:

| IC50 (EGFR wildtype (WT); IC50 WT (nM), 100 μM ATP) [nM] | IC50 (EGFR wildtype (WT); [1]) [nM] | IC50 (EGFR L858R/T790M/C797S; [2]) [nM] | IC50 (EGFR L858R/T790M/C797S; [3]) [nM] | IC50 (EGFR L858R/C797S; [4]) [nM] | IC50 (EGFR L858R/C797S; [5]) [nM] | IC50 (EGFR Del19/C797S; [6]) [nM] | IC50 (EGFR Del19/C797S; [7]) [nM] | IC50 (EGFR Del19/T790M/C797S; [8]) [nM] | IC50 (EGFR Del19/T790M/C797S; [9]) [nM] | SMILES |
| --- | --- | --- | --- | --- | --- | --- | --- | --- | --- | --- |
| > 10000 | 89.4 | 3 | 1.1 | 119 | 32.3 | 12.4 | 9.7 | 4.1 | 3.1 | CC1(O)CC2(CCN(c3cc(Nc4ccnc(-c5cnn(S(=O)(=O)C6CC6)c5)n4)ncc3C#Cc3cnn(C(F)(F)F)c3)CC2)C1 [Example 104, 7-(2-((2-(1-(Cyclopropylsulfonyl)-1H-pyrazol-4-yl)pyrimidin-4-yl)amino)-5-((1-(trifluoromethyl)-1H-pyrazol-4-yl)ethynyl)pyridin-4-yl)-2-methyl-7-azaspiro[3.5]nonan-2-ol] |
| > 10000 | 95.5 | 1.6 | 0.6 | 274 | 6.1 | 15.1 | 12.5 | 1.1 | 1 | Cn1ccc(C#Cc2cnc(Nc3ccnc(-c4cnn(S(=O)(=O)C5CC5)c4)n3)cc2N[C@H]2CC[C@@H](O)CC2)n1 [Example 106, (1s,4s)-4-((2-((2-(1-(Cyclopropylsulfonyl)-1H-pyrazol-4-yl)pyrimidin-4-yl)amino)-5-((1-methyl-1H-pyrazol-3-yl)ethynyl)pyridin-4-yl)amino)cyclohexan-1-ol] |
| > 10000 | 24.1 | 1.3 | 0.6 | 85.6 | 1.9 | 4.6 | 3.2 | 1.2 | 1.2 | Cn1ccc(C#Cc2cnc(Nc3ccnc(-c4cnn(S(=O)(=O)C5CC5)c4)n3)cc2N2CCC(C)(CO)CC2)n1 [Example 107, (1-(2-((2-(1-(Cyclopropylsulfonyl)-1H-pyrazol-4-yl)pyrimidin-4-yl)amino)-5-((1-methyl-1H-pyrazol-3-yl)ethynyl)pyridin-4-yl)-4-methylpiperidin-4-yl)methanol] |
| 296 | 2.8 | 1.3 | 0.6 | 2.7 | 0.8 | 1.7 | 1.8 | 1.2 | 1.1 | CC(=O)N1CCC(n2cc(C#Cc3cnc(Nc4ccnc(-c5cnn(S(=O)(=O)C6CC6)c5)n4)cc3N3CCC(C)(CO)CC3)cn2)CC1 [Example 110, 1-(4-(4-((6-((2-(1-(Cyclopropylsulfonyl)-1H-pyrazol-4-yl)pyrimidin-4-yl)amino)-4-(4-(hydroxymethyl)-4-methylpiperidin-1-yl)pyridin-3-yl)ethynyl)-1H-pyrazol-1-yl)piperidin-1-yl)ethan-1-one] |
